Reference: US20230097253A1, “NOVEL QUINAZOLINE COMPOUND AS THERAPEUTIC AGENT FOR METABOLIC DISORDERS” (BIOWAY., INC, priority 2020, published 2023)

What was measured:
3T3-L1 cells = test: Inhibition of fat globule formation in adipocytes by Oil-Red-O staining; assay type: cell-based, mouse; settings: 3T3-L1 adipocytes, 0.5, 2.5, 10 and 20 μM
Protocol: In order to confirm the effect of the compound on reducing fat accumulation on adipocytes, 3TL-L1 mouse fat progenitor cells (American Type Culture Collection) were cultured in an incubator set at 37° C. with 95% humidity and 5% CO2.
Additionally, after sufficiently proliferating 3T3-L1 mouse adipocytes using a proliferation medium (Dulbecco's modified Eagle's medium (DMEM) supplemented with 10% bovine serum (BS), 100 U/mL of penicillin, and 100 μg/mL of streptomycin), the cells were treated with a differentiation medium (DMEM containing 10% FBS, 0.5 mM 3-isobutyl-1-methylxanthine, 1 […], and 5 μg/mL insulin) for 2 days.
Thereafter, the cells were treated with an induction medium (DMEM containing 10% FBS and 5 μg/mL insulin) for 2 days, the maintenance medium (DMEM containing 10% FBS) was replaced daily to maintain the differentiated adipocytes until the end of the experiment.
According to an embodiment of the present invention, in order to confirm the ability of the compound of Formula 2 to inhibit fat globule formation, the 3T3-L1 cells (which are fat progenitor cells) were induced to be differentiated into adipocytes, and then stained through Oil-Red-O staining. […]

[1] = test system: steatosis-induced Huh7 cells; test: Fat globule reducing effect by Oil-Red-O staining, compared to existing developed materials; assay type: cell-based; settings: FIG. 3
Protocol: In order to confirm the inhibition of fat accumulation in steatosis-induced liver cells, Huh7 cells were cultured in an incubator set at 37° C., 95% humidity, and 5% C02.
Additionally, Huh7 cells were proliferated to a confluency of 80-90% on a plate using a growth medium (Dulbecco's modified Eagle's medium (DMEM) supplemented with 10% fetal bovine serum (FBS), 100 U/ml of penicillin, and 100 μg/ml of streptomycin), and then used for the experiment.
In order to confirm the ability of BW-3290 to inhibit fat globule accumulation in steatosis-induced liver cells compared to the existing material under development, the liver cells were treated with palmitic acid (PA) bound to 2% BSA at a concentration of 250 μM except for the control group to induce steatosis, and then fat globules were stained through Oil-Red-O staining.
First, liver cells were cultured to grow 80-90% confluency in a 12 well plate, and the test material, BW-3290, were diluted in the culture medium that induced steatosis and the liver cells, except for the control group, were treated with 0.5 μM, 2.5 μM, 5 μM, and […].
Additionally, after removing the cell supernatant from the wells for Oil-Red-O staining, the washing process was performed twice with PBS.
Additionally, after washing, the resultant was fixed with 4% paraformaldehyde for 30 minutes. […]

[2] = test system: Huh7 cells induced with inflammatory response; test: Protein expression levels in liver cells induced with inflammatory response (western blot); assay type: cell-based; settings: Huh7 cells pretreated with 10 ng/ml IL-1β; 0.5, 2.5, 10 μM, 24 hours; FIG. 11
Protocol: To induce steatosis in Huh-7 cells in each well except for control cells, the Huh-7 cells were pretreated with 10 ng/ml IL-1p for 2 hr except for the control.
The cells in each well were treated with the compound of the present invention, BW-3290, 0.5 μM, 2.5 μM, and 10 μM and then cultured for 24 hours. All media were aspirated and the cells were gently washed 3 times with cold PBS.
A cold lysis buffer containing 150 mM sodium chloride (NaCl), 5 mM ethylenediaminetetraacetic acid (EDTA), pH 8.0, […] 4-(2-hydroxyethyl)-1-piperazineethanesulfonic acid (HEPES), 1% nonylphenoxypolyethoxylethanol (NP-40), 2 μg/mL aprotinin, 1 μM pepstatin A, 10 μM leupeptin, 1 mM sodium fluoride (NaF), 0.2 mM sodium orthovanadate ([…]), and 1 μM phenylmethylsulfonyl fluoride (PMSF) was added thereto.
A whole cell lysate was collected and gently pipetted at least 10 times to ensure complete lysis. The sample was incubated on ice for 20 minutes and centrifuged 4° C. at 13,000 rpm, for 20 minutes. The supernatant was collected, 5× sodium dodecyl sulfate (SDS) sample buffer containing 50 mM Tris-CI (pH 6.8), 2% SDS, 0.1% bromopheol blue, and 10% glycerol was added to the sample, and boiled at 95° C. for 5 minutes. […]
Images were acquired using an ImageQuant LAS 3000 (Fujifilm, Tokyo, Japan). Data were analyzed.

SMILES: CC(C)C(Nc1ncnc2nc[nH]c12)c1nc2cccc(Cl)c2c(=O)n1-c1ccccc1 (stereo not drawn) [BW-3290, 2-(1-((7H-purin-6-yl)amino)-2-methylpropyl)-5-chloro-3-phenylquinazolin-4(3H)-one]
- fat globule staining (Oil-Red-O) compared to differentiation (3T3-L1 cells; concentration-dependent, FIG. 5): lower level of fat globule staining compared to differentiation
- amount of stained fat globules (3T3-L1 cells; FIG. 6): appeared less in a drug concentration-dependent manner
- fat globule staining (Oil-Red-O) compared to PA ([1]; 250 μM PA, 0.5, 2.5, 5 and 10 μM, concentration dependent): lower level of fat globule staining compared to PA
- staining of fat globules in comparison with PF-06409577 and elafibranor ([1]; 250 μM PA, at the same concentration of 10 μM and at lower concentrations): reduced
- protein expression level of p-IKKα [2]: decreased in a concentration-dependent manner
- protein expression level of p-NFκ [2]: decreased in a concentration-dependent manner
